Reference: publication PMC7590976, “Detection of Active Granzyme A in NK92 Cells with Fluorescent Activity-Based Probe” (Journal of Medicinal Chemistry, 2020)
“And” between values parts separate entries of the source, which are not always exact repeats. Equal values may be shown once. “Also recorded” adds a separate entry of the source. Non-standard residues stand in square brackets, D forms with d. *: point of attachment. Oic = O=C(O)[C@@H]1C[C@@H]2CCCC[C@@H]2N1; ACC = NC(=O)Cc1cc(=O)oc2cc(N*)ccc12; Tic = O=C(O)[C@@H]1Cc2ccccc2CN1

Columns and labels:
GrB = biological target: T1, GrB (Homo sapiens, UniProt P10144); test: GrA substrate selectivity testing on GrB; format: biochemical; details: substrate 200 μM (Fig 3A) or 67 μM, 18 nM GrB
T1 construct: made in house; host or cells: Pichia pastoris
Excerpt: (§1) Since GrA and GrK are the most structurally similar Grs, they may recognize and hydrolyze the same natural and synthetic substrates. Therefore, we tested whether our new GrA substrates are also recognized by GrK or GrB (Figure 3A). For this experiment, we screened substrates SK8 to SK28 and a GrKref substrate (Ac-Tyr-Arg-Phe-Lys-ACC) or GrBref substrate (Ac-Ile-Glu-Pro-Asp-ACC) at the same concentration using a plate reader, and we monitored the increase in fluorescence over time. The linear portions of the diagram were analyzed, and as we expected, the majority of the substrates were well recognized by GrK, even better than their recognition by GrA. […] Based on that, we concluded that Tic-Gly-Oic-Arg is a leading sequence for a specific potent inhibitor and ABP for GrA.
(§2) Figure 3 (A) GrA substrate selectivity testing on GrK and GrB. Substrates SK8–SK28 and the reference GrK and GrB substrates were placed in a 96-well plate at a concentration of 200 μM and treated with GrK or GrB. […] Data present the average of 2 replicates as adjusted RFU/s.
(§3) Figure S2. Selectivity of SK15 substrate toward selected serine proteases (GrA, GrB, GrM, GrK,
(§4) PR3, and hNE). The reference substrates were as follows: Ac-Ile-Gly-Pro-Arg-ACC for GrA, Ac -Tyr-
(§5) Arg-Phe-Lys-ACC for GrK, Ac-Ile-Glu-Pro-Asp-ACC for GrB, Ac-Lys-Val-Pro-Leu-ACC for GrM,
(§6) Ac-Glu(O-Bzl)-Lys(Ac)-Hyp(Bzl)-Nva-ACC for PR3 and Ac-Arg(NO)2-Glu(Bzl)-Oic-Abu-ACC for hNE.
(§7) Substrates were placed in a 96-well plate at a concentration of 67 µM and treated with optimal
(§8) and emission wavelengths. Data present the average of 2 replicates as adjusted RFU/s.
Figure S3. Detection of active GrA in NK92 cells.
(also on this page, place not known: S K15 hNE) . Ac-Tyr- -Arg(NO)2-Glu(Bzl)-Oic-Abu-ACC ( 89 G rA cell s. reference reference SK15 reference SK15 reference SK15 reference SK15 reference SK15 0 50 100 substrate turnover, %RFU/s PR3GrMGrBGrK hNEGrA SK15 selectivity) […]

GrA [1] = biological target: T2, GrA (Homo sapiens, UniProt P12544); test: Steady-state Michaelis–Menten kinetics of fluorogenic ACC substrates with GrA; format: biochemical
T2 construct: made in house; host or cells: Pichia pastoris
T2 sequence (P12544 29-262): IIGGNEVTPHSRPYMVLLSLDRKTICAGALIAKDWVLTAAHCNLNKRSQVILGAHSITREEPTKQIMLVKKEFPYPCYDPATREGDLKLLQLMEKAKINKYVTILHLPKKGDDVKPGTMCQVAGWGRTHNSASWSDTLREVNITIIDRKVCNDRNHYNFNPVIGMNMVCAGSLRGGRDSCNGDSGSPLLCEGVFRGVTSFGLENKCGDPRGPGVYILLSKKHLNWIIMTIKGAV
Excerpt: All chemical and biological reagents were purchased from commercial suppliers and used without further purification. The following reagents for solid phase peptide synthesis, Rink Amide RA resin (particle size 200–300 mesh, loading 0.74 mmol/g), 2-chlorotrityl chloride resin, Fmoc-protected amino acids, biotin, 1-[bis(dimethylamino)methylene]-1H-1,2,3-triazolo[4,5-b] pyridinium 3-oxid hexafluorophosphate (HATU), piperidine, diisopropylcarbodiimide (DICI), and trifluoroacetic acid (TFA), were purchased from Iris Biotech GmbH (Marktredwitz, Germany); anhydrous N-hydroxybenzotriazole (HOBt, purity >98%) was purchased from Creosauls; 2,4,6-collidine (2,4,6-trimethylpyridine), HPLC pure acetonitrile, and triisopropylsilane (TIPS) were purchased from Sigma-Aldrich (Poznan, Poland); and N,N-diisopropylethylamie (DIPEA) was purchased from VWR International (Gdansk, Poland). Solvents such as N,N-dimethylformamide (DMF), dichloromethane (DCM), methanol (MeOH), diethyl ether (Et2O), and acetic acid (AcOH) were purchased from Avantor (Gliwice, Poland). Cy5 was purchased from Lumiprobe GmbH (Hannover, Germany). Human neutrophil elastase was purchased from BioCentrum (Kraków, Poland) and proteinase 3 from Athens Research Technology (Athens, USA). Anti-GrA antibody (rabbit, monoclonal, ab209205) was obtained from Abcam (Cambridge, Great Britain). All cell lines were purchased from DSMZ (Braunschweig, Germany) or ATCC (Manassas, USA). All kinetic assays were performed using a Spectra Max Gemini XPS spectrofluorometer (Molecular Devices) on 96-well Corning plates. The parameters of the process were as follows: 37 °C; excitation/emission wavelength, 355/460 nm; cutoff, 455 nm; varying concentrations of substrates and enzyme. All measurements were performed in duplicate, and the data represent the average of these repetitions

GrA [2] = test: Screening of individual substrates SK7–SK28 with GrA; format: biochemical, human; details: Figure 2A: substrate 1 μM, 89 nM enzyme (method b64: 67 μM, 583 nM GrA); adjusted RFU/s, average of 2 replicates
Excerpt: Data present the average of 2 replicates as adjusted RFU/s. (B) Comparison of SK7 (blue) and SK15 (red) structures.

GrK = biological target: T3, GrK (Homo sapiens, UniProt P49863); test: GrA substrate selectivity testing on GrK; format: biochemical; details: 488 nM GrK
T3 construct: made in house; host or cells: Pichia pastoris
T3 sequence (P49863 27-264): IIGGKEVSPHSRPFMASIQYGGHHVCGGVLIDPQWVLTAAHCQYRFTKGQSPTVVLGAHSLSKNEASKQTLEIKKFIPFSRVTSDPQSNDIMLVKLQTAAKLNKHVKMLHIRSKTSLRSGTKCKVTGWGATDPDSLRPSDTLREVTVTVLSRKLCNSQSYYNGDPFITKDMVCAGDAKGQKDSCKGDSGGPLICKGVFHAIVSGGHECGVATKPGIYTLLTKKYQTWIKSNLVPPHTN
Excerpt: as §1, §2, §3, §4
Arg-Phe-Lys-ACC for GrK, Ac-Ile-Glu-Pro-Asp-ACC for GrB, Ac-Lys-Val-Pro-Leu-ACC for GrM, […]

proteinase 3 (PR3) = test: Selectivity of SK15 substrate toward PR3; format: biochemical; details: Figure S2: substrate 67 µM, 3.4 nM PR3
Excerpt: as §1, §3, §4, §5, §6, §7, §8
(§9) Figure S3. Detection of active GrA in NK92 cells. […]

granzyme M (GrM) = test: Selectivity of SK15 substrate toward GrM; format: biochemical, human; details: Figure S2: substrate 67 µM, 74 nM GrM
Excerpt: as §1, §3, §4, §5, §6, §7, §8, §9

[3] = tested on: human neutrophil elastase (hNE); test: Selectivity of SK15 substrate toward hNE; format: biochemical; details: Figure S2: substrate 67 µM, 3.3 nM hNE
Excerpt: as §1, §3, §4, §5, §6, §7, §8, §9

[4] = GrA 93 nM, assay buffer pH 7.5, 37 °C, ACC fluorescence 355/460 nm

T1 sequence (P10144 21-247): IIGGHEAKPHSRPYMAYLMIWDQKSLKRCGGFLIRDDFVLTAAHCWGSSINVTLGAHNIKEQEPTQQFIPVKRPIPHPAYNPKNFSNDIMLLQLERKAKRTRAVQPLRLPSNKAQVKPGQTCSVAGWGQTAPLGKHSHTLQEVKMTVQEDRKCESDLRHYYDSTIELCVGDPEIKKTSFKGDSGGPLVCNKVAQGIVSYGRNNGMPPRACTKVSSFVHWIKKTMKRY

Ac-[Tic]G[Oic]R-{ACC} (SMILES CC(=O)N1Cc2ccccc2C[C@H]1C(=O)NCC(=O)N1[C@H](C(=O)N[C@@H](CCCNC(=N)N)C(=O)Nc2ccc3c(CC(N)=O)cc(=O)oc3c2)C[C@@H]2CCCC[C@@H]21) [SK15]
hydrolysis by GrB (in words) (GrB): inactive; also recorded: not recognized
kcat (GrA [1]; [4]): 0.27 ± 0.0029 s⁻¹
kcat/KM (GrA [1]; [4]): 3100 M^–1 s^–1 and 3100 ± 80 s^–1 M^–1
Km (GrA [1]; GrA 93 nM, substrate 1000–7.81 μM, 50 mM Tris, 100 mM NaCl, 5 mM CaCl2, 0.01% Tween-20, pH 7.5, 37 °C, ACC fluorescence 355/460 nm, Michaelis–Menten nonlinear regression, duplicate): 87.4 ± 1.3 µM
GrA activity against the substrate relative to the reference sequence SK7 (GrA [1]; ratio to SK7): approximately 40 fold
hydrolysis of individual substrate by GrA (in words) (GrA [2]): most active substrate
hydrolysis by GrK (GrK; Figure 3A and S2, substrate 200 μM (Fig 3A) or 67 μM (Fig S2), adjusted RFU/s, 2 replicates): 20%
hydrolysis by GrK (in words) (GrK; substrate 200 μM (Fig 3A) or 67 μM): barely hydrolyzed
recognition by PR3 (in words) (proteinase 3 (PR3)): not recognized
recognition by GrM (in words) (granzyme M (GrM)): not recognized
recognition by hNE (in words) [3]: not recognized
